Results from US20240207308A1, “METHOD FOR CULTURING DENDRITIC CELLS” (NANOFAENTECH CO., LTD., priority 2021, published 2024).

Key:
Type in all cases: cell-based, mouse
[1] = tested on: CD8+ T cells from OT-I transgenic mice; assay: Proliferation of CFSE-stained OT-I CD8+ T cells co-cultured with OVA peptide-treated spleen dendritic cells; conditions: LPS-stimulated dendritic cells, co-culture 1:20, 4 days
Experimental: The spleen dendritic cells (2×10^6/mL) were self-activated in a 96-well plate for 24 hours, or self-activation was inhibited by adding a linker peptide, and then either not treated with LPS or stimulated with LPS for 24 hours. Dendritic cells were cultured with 10 μM ovalbumin (OVA) peptide SIINFEKL (InvivoGen, San Diego, California, USA) for 1 hour. CD8^+ T cells were isolated from OT-I transgenic mice using a CD8 T cell isolation kit (Miltenyi Biotec) and fluorescence-stained with 10 μM carboxyfluorescein succinimidyl ester (CFSE) for 10 minutes. After co-culture of CD8^+ T cells (1×10^5) and DCs (5×10^3) treated with OVA peptide at a ratio of 1:20 for 4 days, a proliferation level of T cells was measured in percentage of cells that are negative for CFSE fluorescence-staining.

[2] = tested on: spleen primary dendritic cells; assay: ELISA of TNF-α / IL-12p40 secreted by cultured spleen primary dendritic cells; conditions: 24 hours
Experimental: In FIG. 12, spleen primary dendritic cells were dispensed at 1×10^6/mL and cultured for 24 hours, and then a concentration of TNF-α secreted from these cells in the culture medium was measured. As a result, it was confirmed that the secretion increased in a time-dependent manner. The concentration of TNF-α was measured at 450 nm using an ELISA kit (R&D systems) and a microplate analyzer (Synergy H1, Biotek). However, when dendritic cells were dispensed at 2×10^5/mL, CD86 expression was increased but TNF-α secretion was not increased (results not presented). * indicates statistical significance as P<0.05 or less compared with 3 h.
In FIG. 13, spleen primary dendritic cells were dispensed at 1×10^6/mL and cultured for 24 hours. […] Furthermore, when P4, P5 and P6 peptides were added at a concentration of 200 μg/mL, respectively, the secretion of TNF-α was not inhibited.
Therefore, it could be seen that fibronectin has a disadvantage of inhibiting the activation by stimulants although can maintain the inactivation of spleen dendritic cells. * indicates statistical significance as P<0.05 or less compared to -LPS.
In FIG. 27, an ELISA kit (R&D systems) was used to measure the concentration of TNF-α secreted into the culture medium when spleen primary dendritic cells were dispensed at 2×10^5/mL and cultured for 24 hours. The concentration was determined at 450 nm by a microplate analyzer (Synergy H1, Biotek).

[3] = tested on: spleen dendritic cells; assay: Distribution / clustering of cultured spleen dendritic cells by confocal microscope (DIC); conditions: 200 μg/mL added, dendritic cells 2×10^5/mL, cultured 6 hours
Experimental: Mouse spleen dendritic cells were obtained by adding EDTA-BSS (Balanced Salt Solution) buffer and collagenase solution (DMEM containing 100 units of collagenase type IV, medium containing low glucose) to spleens of female C57BL/6 mice and cutting it with surgical scissors, mixing the same with 6 mL of collagenase treatment solution, and incubating the mixture for 30 minutes. The separated whole spleen tissue was filtered using a 70 μm cell strainer (Falcon), followed by centrifugation at 1800 rpm for 5 minutes thus to separate the cells. Red blood cells were removed by adding red blood cell lysis buffer (Sigma-Aldrich) to the cells and washed twice with RPMI-1640 medium containing 10% fetal bovine serum (FBS). Dendritic cells were reacted with CD11c^+ antibody-bound microbeads and isolated using CD11c Microbeads Ultrapure ([…] Biotec, USA). In FIG. 1, primary dendritic cells isolated from the spleen were dispensed in a 48-well plate and cultured for 24 hours in a cell chamber maintained at 37° C. and 5% CO2, and the extent of clustering in which cells were distributed or gathered into single cells was evaluated. […] The number of single cells and intercellular clusters was measured using ImageJ software (NIH, Bethesda). * indicates statistical significance as P<0.05 or less compared with 0 h. […]

[4] = tested on: bone marrow-derived dendritic cells; assay: CD86 expression of LPS-stimulated bone marrow-derived dendritic cells, flow cytometry; conditions: 24 hours, LPS 1 μg/mL
Experimental: Compared to spleen dendritic cells, when bone marrow-derived DCs (BMDCs) were stimulated with LPS, effects of the peptide combination and the addition of fibronectin were measured.
Mouse bone marrow-derived dendritic cells were obtained by differentiation from mouse bone marrow precursor cells. The femur and tibia of female C57BL/6 mouse were removed, and bone marrow was isolated using 10 mL of EDTA:BSS (Balanced Salt Solution) buffer containing 2% FBS. Red blood cells were removed with erythrocyte lysis buffer (Sigma-Aldrich), washed with EDTA:BSS buffer, followed by filtering cells using a 70 μm cell strainer (Falcon). Cells at 3×10^6/mL were dispensed in a 6-well plate, and interleukin-4 (20 ng/ml) (JW Creagene, Korea) and GM-CSF (20 ng/ml) (JW Creagene) were added and cultured for 7 days to induce differentiation. Differentiated dendritic cells were reacted with microbeads bound with CD11c antibody (eBioscience), was separated using CD11c Microbeads Ultrapure (MACS, Milteni Biotec), and then cultured.
In FIG. 17, while culturing 2×10^5/mL of bone marrow-derived dendritic cells for 24 hours, the peptides of P1, P2 and P3 were each added at a concentration of 200 μg/mL or fibronectin was added at a concentration of 200 μg/mL. […]

[5] = tested on: spleen dendritic cells; assay: Viability of spleen dendritic cells by 7-AAD staining; conditions: 6 hours of culture
Experimental: Dendritic cells are characterized by rapid cell death during culture while self-activation occurs. In addition to the inhibition of self-activation, it was measured whether the viability of dendritic cells is changed. Cell viability was determined by staining of culturing cells with 7-AAD and measuring the number of cells not stained with the above fluorescent substance.

fibronectin
T cell proliferation (cells negative for CFSE) [1]: very weak ability to induce T cell proliferation | secretion of TNF-α and IL-12p40 ([2]; 1 μg/mL LPS): did not produce these cytokines | secretion of TNF-α ([2]; cells 1×10^6/mL, no stimulant): hardly measured | TNF-α secretion ([2]; cells 2×10^5/mL, without LPS): hardly occurred | cell aggregation (distribution of cells) [3]: significantly reduced | CD86 expression by LPS ([4]; BMDC 2×10^5/mL, 200 μg/mL): did not occur | concentration from which the increase in CD86 expression by LPS was inhibited ([4]; BMDC): ≥ 50 µg/mL | number of 7-AAD-negative surviving cells [5]: significantly increased
